Patent US10023592B2, “Bromodomain inhibitors” (Celgene Quanticel Research, Inc., priority 2013, dated 2018)

Legend:
[1] = test system: HL-60, human proleukemia cells; assay: Cell-MTS proliferation assay, HL-60; assay type: cell-based; settings: Cell-MTS, 168 hr, class symbols A/B/C
Experimental: (§1) The Cell-MTS assay is a 7-day plate-based colorimetric assay which quantifies the amount of newly generated NADH in the presence or absence of test compound. The NADH level is used for the quantification of cancer cell proliferation.
(§2) Established cancer cell lines with a variety of driving mutations were obtained from American Type Culture Collection (ATCC) and routinely passaged according to ATCC protocols. For routine assay, these cells were seeded at densities which enabled ˜90% confluence after 7 days of culture. Raji, human Burkitts lymphoma cells, (cMYC) were seeded at 15,000 cells per 96-well. HL-60, human proleukemia cells, (NRAS, p16, p53, c-Myc amplified) were seeded at 5,000 cells per 96-well. NCI-H460, human non-small cell lung cancer cells, (KRAS, PIK3CA, STLK11, p16) were seeded at 3,000 cells per 96-well. 24 hr after plating, cells received an 11-point dilution of test compound with final concentration ranges from 100 μM to 2.0 nM. […] At the end of this incubation period, 80 μL of media is removed and 20 μL of CellTiter 96® AQueous Non-Radioactive Cell Proliferation Assay soln (Promega) was added. The cells were incubated until the OD490 was >0.6. IC50 values were calculated using the IDBS XLfit software package and include background subtracted OD490 values and normalization to DMSO controls. Cellular proliferation IC50 values were uploaded and archived using the Chem Biography Platform.

[2] = test system: Raji, human Burkitts lymphoma cells; assay: Cell-MTS proliferation assay, Raji; assay type: cell-based; settings: 168 hr
Experimental: as §1, §2

BRD4(BD1) = BRD4(BD1) (Homo sapiens (Human), UniProt O60885); assay: In vitro enzyme inhibition assay (BRD4 AlphaScreen); assay type: binding
Summary of the method: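 AlphaScreen proximity readout, using streptavidin donor and Ni-chelate acceptor beads at 5 μg/mL final, monitors biotin-H4 tetraacetylated peptide interaction with purified His-tagged BRD4.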

[3] = Homo sapiens, Raji, Cell-MTS, class symbols A/B/C
[4] = Homo sapiens, Raji, Cell-MTS proliferation
[5] = in vitro enzyme inhibition assay
[6] = Homo sapiens, Cell-MTS proliferation, Raji cells

Compound | IC50 ([1]; Homo sapiens, HL-60) [nM] | IC50 [2, 3] [nM] | IC50 (BRD4(BD1); class symbols A/B/C) [nM] | IC50 (BRD4(BD1); [5]) [nM] | further results
Cn1cc(-c2cccc(S(=O)(=O)N3CCCC3)c2)c2ccccc2c1=O [Example 7, 2-methyl-4-(3-pyrrolidin-1-yl-sulfonylphenyl)isoquinolin-1-one] | 500 to 5000 | < 500 | 500 to 5000 | – | –
COc1ccc(-c2cn(C)c(=O)c3ccccc23)cc1S(=O)(=O)NCc1ccccc1 [Example 15, N-benzyl-2-methoxy-5-(2-methyl-1-oxoisoquinolin-4-yl)benzenesulfonamide] | 500 to 5000 | < 500 | 500 to 5000 | – | –
Cc1ccc(-c2cn(C)c(=O)c3ccccc23)cc1NS(C)(=O)=O [Example 17, N-[2-methyl-5-(2-methyl-1-oxoisoquinolin-4-yl)phenyl] methanesulfonamide] | < 500 | 500 to 5000 | < 500 | – | –
COc1ccc(-c2cn(C)c(=O)c3ccccc23)cc1C(=O)NCc1ccccc1 [Example 18, N-benzyl-2-methoxy-5-(2-methyl-1-oxoisoquinolin-4-yl)benzamide] | 500 to 5000 | 500 to 5000 | 500 to 5000 | – | –
Cn1cc(-c2ccc3c(c2)NC(=O)C3)c2ccccc2c1=O [Example 20, 2-methyl-4-(2-oxo-1,3-dihydroindol-6-yl) isoquinolin-1-one] | < 500 | < 500 | > 5000 | – | –
Cn1cc(-c2cccc(S(=O)(=O)NCCO)c2)c2ccccc2c1=O [Example 22, N-(2-hydroxyethyl)-3-(2-methyl-1-oxoisoquinolin-4-yl)benzenesulfonamide] | 500 to 5000 | 500 to 5000 | 500 to 5000 | – | –
COc1ccc(-c2cn(C)c(=O)c3ccccc23)cc1NS(C)(=O)=O [Example 30, N-[2-methoxy-5-(2-methyl-1-oxoisoquinolin-4-yl)phenyl]methanesulfonamide] | < 500 | 500 to 5000 | < 500 | – | –
CN(C(=O)OC(C)(C)C)c1cccc(-c2cn(C)c(=O)c3ccccc23)c1 [Example 31, tert-butyl N-methyl-N-[3-(2-methyl-1-oxoisoquinolin-4-yl)phenyl]carbamate] | 500 to 5000 | 500 to 5000 | 500 to 5000 | – | –
CCNS(=O)(=O)c1cccc(-c2cn(C)c(=O)c3ccc(F)cc23)c1 [Example 49, N-ethyl-3-(6-fluoro-2-methyl-1-oxoisoquinolin-4-yl) benzenesulfonamide] | – | – | – | – | IC50 [1]: 500 to 5000 nM; IC50 ([2]; Cell-MTS, class symbols A/B/C): 500 to 5000 nM
CCS(=O)(=O)c1ccc(OCC2CC2)c(-c2cc(OCC(F)(F)F)c(=O)n(C)c2)c1 [Example 288, 5-[2-(cyclopropylmethoxy)-5-ethylsulfonylphenyl]-1-methyl-3-(2,2,2-trifluoroethoxy)pyridin-2-one] | – | – | – | < 500 | IC50 [2, 4]: 500 to 5000 nM
[2H]C([2H])([2H])n1cc(-c2cc(S(=O)(=O)CC)ccc2OCC2CC2)c(C)cc1=O [Example 457, 5-[2-(cyclopropylmethoxy)-5-ethylsulfonylphenyl]-1-(^2H3)methyl-4-methylpyridin-2-one] | – | – | – | < 500 | IC50 [2, 6]: < 500 nM
CCC1Cc2cc(S(C)(=O)=O)cc(-c3cn(C)c(=O)c4ccccc34)c2O1 (centres unmarked) [Example 494, 4-(2-ethyl-5-methylsulfonyl-2,3-dihydro-1-benzofuran-7-yl)-2-methylisoquinolin-1-one] | – | – | – | < 500 | IC50 [2, 6]: 500 to 5000 nM
CCCCc1cnc(S(C)(=O)=O)nc1-c1cc(C)c(=O)n(C(C)C)c1 [Example 508, 5-(5-butyl-2-methylsulfonylpyrimidin-4-yl)-3-methyl-1-propan-2-ylpyridin-2-one] | – | – | – | < 500 | –
CCCCc1cnc(NS(=O)(=O)CC)nc1-c1cc(C)c(=O)n(C(C)C)c1 [Example 511, N-[5-butyl-4-(5-methyl-6-oxo-1-propan-2-ylpyridin-3-yl)pyrimidin-2-yl] ethanesulfonamide] | – | – | – | < 500 | IC50 [2, 6]: < 500 nM
CCCCc1cnc(NS(=O)(=O)CC)nc1-c1cc(C(C)C)c(=O)n(C)c1 [Example 512, N-[5-butyl-4-(1-methyl-6-oxo-5-propan-2-ylpyridin-3-yl)pyrimidin-2-yl] ethanesulfonamide] | – | – | – | < 500 | IC50 [2, 6]: < 500 nM
CCCCc1cnc(S(C)(=O)=O)nc1-c1cc(C(C)C)c(=O)n(C)c1 [Example 513, 5-(5-butyl-2-methylsulfonylpyrimidin-4-yl)-1-methyl-3-propan-2-ylpyridin-2-one] | – | – | – | < 500 | –

Now from value to molecule, other results behind:

IC50 ([1]; Homo sapiens, HL-60) [nM] | IC50 [2, 3] [nM] | IC50 (BRD4(BD1); class symbols A/B/C) [nM] | IC50 (BRD4(BD1); [5]) [nM] | Compound | further results
< 500 | < 500 | < 500 | – | Cn1cc(-c2cc(NS(C)(=O)=O)ccc2F)c2ccccc2c1=O [Example 34, N-[4-fluoro-3-(2-methyl-1-oxoisoquinolin-4-yl)phenyl] methanesulfonamide] | –
500 to 5000 | 500 to 5000 | 500 to 5000 | – | Cn1cc(-c2cc(NS(C)(=O)=O)c(F)cc2F)c2ccccc2c1=O [Example 35, N-[2,4-difluoro-5-(2-methyl-1-oxoisoquinolin-4-yl)phenyl]methanesulfonamide] | –
500 to 5000 | 500 to 5000 | 500 to 5000 | – | Cn1cc(-c2cc(F)cc(NS(C)(=O)=O)c2)c2ccccc2c1=O [Example 36, N-[3-fluoro-5-(2-methyl-1-oxoisoquinolin-4-yl)phenyl] methanesulfonamide] | –
500 to 5000 | 500 to 5000 | < 500 | – | Cn1cc(-c2ccc(F)c(NS(C)(=O)=O)c2)c2ccccc2c1=O [Example 37, N-[2-fluoro-5-(2-methyl-1-oxoisoquinolin-4-yl)phenyl] methanesulfonamide] | –
500 to 5000 | 500 to 5000 | – | – | Cn1cc(-c2cccc(S(N)(=O)=O)c2)c2ccc(F)cc2c1=O [Example 61, 3-(7-fluoro-2-methhyl-1-oxoisoquinolin-4-yl) benzenesulfonamide] | –
– | – | – | < 500 | Cn1cc(-c2nc(CS(C)(=O)=O)ncc2Oc2ccc(F)cc2F)c2ccccc2c1=O [Example 148, 4-[5-(2,4-difluorophenoxy)-2-(methylsulfonylmethyl)pyrimidin-4-yl]-2-methylisoquinolin-1-one] | IC50 [2, 4]: > 5000 nM
– | – | – | < 500 | CCS(=O)(=O)c1ccc(O[C@H]2CC[C@H](O)CC2)c(-c2cn(C)c(=O)c3ccc(F)cc23)c1 [Example 188, 4-[5-ethylsulfonyl-2-(trans-4-hydroxycyclohexyl)oxyphenyl]-6-fluoro-2-methylisoquinolin-1-one] | IC50 [2, 4]: < 500 nM
– | – | – | < 500 | CCS(=O)(=O)c1ccc(O[C@H]2CC[C@H](O)CC2)c(-c2cn(C)c(=O)c3cc(F)ccc23)c1 [Example 189, 4-[5-ethylsulfonyl-2-(trans-4-hydroxycyclohexyl)oxyphenyl]-7-fluoro-2-methylisoquinolin-1-one] | IC50 [2, 4]: < 500 nM
– | – | – | < 500 | CCS(=O)(=O)Nc1cc2c(c(-c3cc(C)c(=O)n(C)c3)c1)OC(C1CC1)C2 (centres unmarked) [Example 496, N-[2-cyclopropyl-7-(1,5-dimethyl-6-oxopyridin-3-yl)-2,3-dihydro-1-benzofuran-5-yl]ethanesulfonamide] | IC50 [2, 6]: < 500 nM
– | – | – | < 500 | Cn1cc(-c2cc(S(C)(=O)=O)ccc2OCC2CC2)c2c(c1=O)CCC2 [Example 504, 4-[2-(cyclopropylmethoxy)-5-methylsulfonylphenyl]-2-methyl-6,7-dihydro-5H-cyclopenta[c]pyridin-1-one] | IC50 [2, 6]: < 500 nM
– | – | – | < 500 | Cn1cc(-c2cc(NS(C)(=O)=O)ccc2Oc2ccc(F)cc2F)c2c(c1=O)CCC2 [Example 506, N-[4-(2,4-difluorophenoxy)-3-(2-methyl-1-oxo-6,7-dihydro-5H-cyclopenta[c]pyridin-4-yl)phenyl]methanesulfonamide] | –
– | – | – | < 500 | CCS(=O)(=O)Nc1ccc(Oc2ccc(F)cc2F)c(-c2cn(C)c(=O)c3c2CCC3)c1 [Example 507, N-[4-(2,4-difluorophenoxy)-3-(2-methyl-1-oxo-6,7-dihydro-5H-cyclopenta[c]pyridin-4-yl)phenyl]ethanesulfonamide] | –
– | – | – | < 500 | CCS(=O)(=O)Nc1ncc(Oc2ccc(F)cc2F)c(-c2cc(C)c(=O)n(C(C)C)c2)n1 [Example 509, N-[5-(2,4-difluorophenoxy)-4-(5-methyl-6-oxo-1-propan-2-ylpyridin-3-yl)pyrimidin-2-yl]ethanesulfonamide] | IC50 [2, 6]: < 500 nM
– | – | – | 500 to 5000 | Cc1cc(-c2nc(S(C)(=O)=O)ncc2Oc2ccc(F)cc2F)cn(C(C)C)c1=O [Example 510, 5-[5-(2,4-difluorophenoxy)-2-methylsulfonylpyrimidin-4-yl]-3-methyl-1-propan-2-ylpyridin-2-one] | –
– | – | – | < 500 | CCS(=O)(=O)Nc1ncc(Oc2ccc(F)cc2F)c(-c2cc(C(C)C)c(=O)n(C)c2)n1 [Example 514, N-[5-(2,4-difluorophenoxy)-4-(1-methyl-6-oxo-5-propan-2-ylpyridin-3-yl)pyrimidin-2-yl]ethanesulfonamide] | –
